According to publication PMC5884652, “New antimicrobial peptide kills drug-resistant pathogens without detectable resistance” (Oncotarget, 2018):
In brackets after ≈: the same amount, converted by molar mass.

Legend:
E. coli CCARM1238 = experiment: microbe, parasite or virus in culture; type: cell-based, Escherichia coli; settings: pH (I or II) not given; 10 mM sodium phosphate buffer, 10% LB; 37° C, 24 h; mean of 3 experiments
Source text: (§1) The method for peptide synthesis has been described in detail previously. E. coli ATCC 25922 (LB media), P. aeruginosa ATCC 15692 (NB+0.5% NaCl media), Listeria monocytogenes ATCC 3710 (LB media), Staphylococcus epidermidis ATCC 12228 (LB media), and S. aureus ATCC 29213 (TSB media) were obtained from the American Type Culture Collection (Manassas, VA, USA). Bacillus subtilis KCTC 1998 (LB media), Salmonella typhimurium KCTC 1926 (NB media), and Proteus vulgaris KCTC 2433 (NB media) were obtained from the Korean Collection for Type Cultures (Jeollabuk-do, Korea). E. coli CCARM 1238 was received from the Culture Collection of Antibiotic Resistant Microbes at Seoul Women’s University, Korea. Drug-resistant P. aeruginosa 3543, 3904, 3547, and 4007 and S. aureus 3126, 0027, 5157, 1635, 4761, 5159, 3359, 2122, 1630, 1870, 3511, 5156, and 3518 were resistant strains isolated from patients with otitis media in a Chonnam National University’s hospital.
(§2) The antibacterial activities of AMPs (melittin, clavaspirin, and its analogs) and conventional antibiotic drugs (erythromycin, gentamicin, ampicillin, and piperacidin) were determined using microdilution assays. Bacterial cells were cultured at 37° C in appropriate culture media at pH 5.5 or pH 7.4 until collection during the mid-log phase and suspended in 10 mM sodium phosphate buffer (pH 5.5 or pH 7.4) supplemented with 10% culture medium. Thereafter, 2× serial dilutions of each peptide (0.25–128 μM) or antibiotic (0.25–256 μM) were added to sterile 96-well plates, and aliquots of cell suspension (5 × 10^5 colony forming units (cfu)/mL) were seeded into each well. The samples were then incubated at 37° C for 24 h. At the end of the incubation, the minimum inhibitory concentrations (MICs) of the peptides were determined using a VERSA Max microplate reader (Molecular Devices Co., Sunnyvale, CA, USA) at a wavelength of 600 nm. […] MIC values were calculated as the mean of 3 independent experiments conducted in triplicate.

[1] = tested on: Salmonella typhimurium KCTC 1926; type: cell-based; settings: pH (I or II) not given; 10 mM sodium phosphate buffer, 10% LB; 37° C, 24 h; mean of 3 experiments
Source text: as §1, with “Bacillus subtilis KCTC 1998 (LB media), Salmonella typhimurium KCTC 1926 (NB media), and Proteus vulgaris KCTC 2433 (NB media) were obtained from the Korean Collection for Type Cultures (Jeollabuk-do, Korea).” left out
as §2

[2] = tested on: Proteus vulgaris KCTC 2433; type: cell-based; settings: pH (I or II) not given; 10 mM sodium phosphate buffer, 10% LB; 37° C, 24 h; mean of 3 experiments
Source text: as §1, with “Bacillus subtilis KCTC 1998 (LB media), Salmonella typhimurium KCTC 1926 (NB media), and Proteus vulgaris KCTC 2433 (NB media) were obtained from the Korean Collection for Type Cultures (Jeollabuk-do, Korea).” left out
as §2

S. aureus 0027 = experiment: microbe, parasite or virus in culture; type: cell-based, Staphylococcus aureus; settings: pH (I or II) not given, 10 mM sodium phosphate buffer, 10% LB, 37° C, 24 h, mean of 3 experiments
Source text: as §1, §2

S. aureus 3518 = experiment: microbe, parasite or virus in culture; type: cell-based, Staphylococcus aureus; settings: pH (I or II) not given, 10 mM sodium phosphate buffer, 10% LB, 37° C, 24 h, mean of 3 experiments
Source text: as §1, §2

S. aureus 3126 = experiment: microbe, parasite or virus in culture; type: cell-based, Staphylococcus aureus; settings: pH (I or II) not given, 10 mM sodium phosphate buffer, 10% LB, 37° C, 24 h, mean of 3 experiments
Source text: as §1, §2

S. aureus 3511 = experiment: microbe, parasite or virus in culture; type: cell-based, Staphylococcus aureus; settings: pH (I or II) not given, 10 mM sodium phosphate buffer, 10% LB, 37° C, 24 h, mean of 3 experiments
Source text: as §1, §2

S. aureus 1630 = experiment: microbe, parasite or virus in culture; type: cell-based, Staphylococcus aureus; settings: pH (I or II) not given, 10 mM sodium phosphate buffer, 10% LB, 37° C, 24 h, mean of 3 experiments
Source text: as §1, §2

S. aureus 5157 = experiment: microbe, parasite or virus in culture; type: cell-based, Staphylococcus aureus; settings: pH (I or II) not given, 10 mM sodium phosphate buffer, 10% LB, 37° C, 24 h, mean of 3 experiments
Source text: as §1, §2

S. aureus 3359 = experiment: microbe, parasite or virus in culture; type: cell-based, Staphylococcus aureus; settings: pH (I or II) not given, 10 mM sodium phosphate buffer, 10% LB, 37° C, 24 h, mean of 3 experiments
Source text: as §1, §2

S. aureus 5159 = experiment: microbe, parasite or virus in culture; type: cell-based, Staphylococcus aureus; settings: pH (I or II) not given, 10 mM sodium phosphate buffer, 10% LB, 37° C, 24 h, mean of 3 experiments
Source text: as §1, §2

S. aureus 1870 = experiment: microbe, parasite or virus in culture; type: cell-based, Staphylococcus aureus; settings: pH (I or II) not given, 10 mM sodium phosphate buffer, 10% LB, 37° C, 24 h, mean of 3 experiments
Source text: as §1, §2

S. aureus 2122 = experiment: microbe, parasite or virus in culture; type: cell-based, Staphylococcus aureus; settings: pH (I or II) not given, 10 mM sodium phosphate buffer, 10% LB, 37° C, 24 h, mean of 3 experiments
Source text: as §1, §2

S. aureus 5156 = experiment: microbe, parasite or virus in culture; type: cell-based, Staphylococcus aureus; settings: pH (I or II) not given, 10 mM sodium phosphate buffer, 10% LB, 37° C, 24 h, mean of 3 experiments
Source text: as §1, §2

S. aureus 1635 = experiment: microbe, parasite or virus in culture; type: cell-based, Staphylococcus aureus; settings: pH (I or II) not given, 10 mM sodium phosphate buffer, 10% LB, 37° C, 24 h, mean of 3 experiments
Source text: as §1, §2

S. aureus 4761 = experiment: microbe, parasite or virus in culture; type: cell-based, Staphylococcus aureus; settings: pH (I or II) not given, 10 mM sodium phosphate buffer, 10% LB, 37° C, 24 h, mean of 3 experiments
Source text: as §1, §2

[3] = tested on: Bacillus subtilis KCTC 1998; type: cell-based; settings: pH (I or II) not given; 10 mM sodium phosphate buffer, 10% LB; 37° C, 24 h; mean of 3 experiments
Source text: as §1, §2

[4] = tested on: Listeria monocytogenes ATCC 3710; type: cell-based; settings: pH (I or II) not given; 10 mM sodium phosphate buffer, 10% LB; 37° C, 24 h; mean of 3 experiments
Source text: as §1, §2

[5] = tested on: Staphylococcus epidermidis ATCC 12228; type: cell-based; settings: pH (I or II) not given; 10 mM sodium phosphate buffer, 10% LB; 37° C, 24 h; mean of 3 experiments
Source text: as §1, §2

P. aeruginosa 3547 = experiment: microbe, parasite or virus in culture; type: cell-based, Pseudomonas aeruginosa; settings: pH (I or II) not given; 10 mM sodium phosphate buffer, 10% LB; 37° C, 24 h; mean of 3 experiments
Source text: as §1, §2

P. aeruginosa 4007 = experiment: microbe, parasite or virus in culture; type: cell-based, Pseudomonas aeruginosa; settings: pH (I or II) not given; 10 mM sodium phosphate buffer, 10% LB; 37° C, 24 h; mean of 3 experiments
Source text: as §1, §2

P. aeruginosa 3904 = experiment: microbe, parasite or virus in culture; type: cell-based, Pseudomonas aeruginosa; settings: pH (I or II) not given; 10 mM sodium phosphate buffer, 10% LB; 37° C, 24 h; mean of 3 experiments
Source text: as §1, §2

P. aeruginosa 3543 = experiment: microbe, parasite or virus in culture; type: cell-based, Pseudomonas aeruginosa; settings: pH (I or II) not given; 10 mM sodium phosphate buffer, 10% LB; 37° C, 24 h; mean of 3 experiments
Source text: as §1, §2

P. aeruginosa ATCC 15692 = type: cell-based, Pseudomonas aeruginosa; settings: pH (I or II) not given; 10 mM sodium phosphate buffer, 10% LB; 37° C, 24 h; mean of 3 experiments
Source text: as §1, with “E. coli ATCC 25922 (LB media), P. aeruginosa ATCC 15692 (NB+0.5% NaCl media), Listeria monocytogenes ATCC 3710 (LB media), Staphylococcus epidermidis ATCC 12228 (LB media), and S. aureus ATCC 29213 (TSB media) were obtained from the American Type Culture Collection (Manassas, VA, USA).” left out
as §2, with “Bacterial cells were cultured at 37° C in appropriate culture media at pH 5.5 or pH 7.4 until collection during the mid-log phase and suspended in 10 mM sodium phosphate buffer (pH 5.5 or pH 7.4) supplemented with 10% culture medium.” left out

Question: Which MIC (E. coli CCARM1238) does the source give for CC[C@H](C)[C@H](NC(=O)CN)C(=O)NCC(=O)N[C@@H](C)C(=O)N[C@H](C(=O)N[C@@H](CC(C)C)C(=O)N[C@@H](CCCCN)C(=O)N[C@H](C(=O)N[C@@H](CC(C)C)C(=O)N[C@H](C(=O)N[C@H](C(=O)NCC(=O)N[C@@H](CC(C)C)C(=O)N1CCC[C@H]1C(=O)N[C@@H](C)C(=O)N[C@@H](CC(C)C)C(=O)N[C@H](C(=O)N[C@@H](CO)C(=O)N[C@@H](Cc1c[nH]c2ccccc12)C(=O)N[C@H](C(=O)N[C@@H](CCCCN)C(=O)N[C@@H](CCCNC(=N)N)C(=O)N[C@@H](CCCCN)C(=O)N[C@@H](CCCNC(=N)N)C(=O)N[C@@H](CCC(N)=O)C(=O)N[C@@H](CCC(N)=O)C(N)=O)[C@@H](C)CC)[C@@H](C)CC)[C@@H](C)O)[C@@H](C)O)C(C)C)C(C)C [Melittin] here?
Answer: 2 µM (≈ 5.69 µg/mL)

Question: What about the “MIC, S. typhimurium” value [1] of the same compound?
Answer: 2 µM (≈ 5.69 µg/mL)

Question: And the “MIC, P. vulgaris” value [2]?
Answer: 2 µM (≈ 5.69 µg/mL)

Question: What about the MIC (S. aureus 0027) of the same compound?
Answer: 2 µM (≈ 5.69 µg/mL)

Question: What about the MIC (S. aureus 3518) of the same compound?
Answer: 4 µM (≈ 11.4 µg/mL)

Question: And the MIC (S. aureus 3126)?
Answer: 2 µM (≈ 5.69 µg/mL)

Question: And the MIC (S. aureus 3511)?
Answer: 4 µM (≈ 11.4 µg/mL)

Question: And the MIC (S. aureus 1630)?
Answer: 4 µM (≈ 11.4 µg/mL)

Question: What about the MIC (S. aureus 5157) of the same compound?
Answer: 2 µM (≈ 5.69 µg/mL)

Question: What about the MIC (S. aureus 3359) of the same compound?
Answer: 4 µM (≈ 11.4 µg/mL)

Question: And the MIC (S. aureus 5159)?
Answer: 8 µM (≈ 22.8 µg/mL)

Question: What about the MIC (S. aureus 1870) of the same compound?
Answer: 4 µM (≈ 11.4 µg/mL)

Question: What about the MIC (S. aureus 2122) of the same compound?
Answer: 4 µM (≈ 11.4 µg/mL)

Question: And the MIC (S. aureus 5156)?
Answer: 4 µM (≈ 11.4 µg/mL)

Question: What about the MIC (S. aureus 1635) of the same compound?
Answer: 2 µM (≈ 5.69 µg/mL)

Question: And the MIC (S. aureus 4761)?
Answer: 4 µM (≈ 11.4 µg/mL)

Question: And the “MIC, B. subtilis” value [3]?
Answer: 2 µM (≈ 5.69 µg/mL)

Question: What about the “MIC, L. monocytogenes” value [4] of the same compound?
Answer: 2 µM (≈ 5.69 µg/mL)

Question: What about the “MIC, S. epidermidis” value [5] of the same compound?
Answer: 2 µM (≈ 5.69 µg/mL)

Question: What about the MIC (P. aeruginosa 3547) of the same compound?
Answer: 2 µM (≈ 5.69 µg/mL)

Question: What about the MIC (P. aeruginosa 4007) of the same compound?
Answer: 2 µM (≈ 5.69 µg/mL)

Question: And the MIC (P. aeruginosa 3904)?
Answer: 2 µM (≈ 5.69 µg/mL)

Question: And the MIC (P. aeruginosa 3543)?
Answer: 2 µM (≈ 5.69 µg/mL)

Question: What about the “MIC, P. aeruginosa” value (P. aeruginosa ATCC 15692) of the same compound?
Answer: 2 µM (≈ 5.69 µg/mL)

Question: Which results are given for CC[C@H]1OC(=O)[C@H](C)[C@@H](O[C@H]2C[C@@](C)(OC)[C@@H](O)[C@H](C)O2)[C@H](C)[C@@H](O[C@@H]2O[C@H](C)C[C@H](N(C)C)[C@H]2O)[C@](C)(O)C[C@@H](C)C(=O)[C@H](C)[C@@H](O)[C@]1(C)O [erythromycin]?
Answer: MIC (S. aureus 0027; Staphylococcus aureus, 0027): > 256 µM; MIC (S. aureus 3518; Staphylococcus aureus, 3518): > 256 µM; MIC (S. aureus 3126; Staphylococcus aureus, 3126): 128 µM (≈ 93.9 µg/mL); MIC (S. aureus 3511; Staphylococcus aureus, 3511): > 256 µM; MIC (S. aureus 1630; Staphylococcus aureus, 1630): > 256 µM; MIC (S. aureus 5157; Staphylococcus aureus, 5157): 16 µM (≈ 11.7 µg/mL); MIC (S. aureus 3359; Staphylococcus aureus, 3359): > 256 µM; MIC (S. aureus 5159; Staphylococcus aureus, 5159): 16 µM (≈ 11.7 µg/mL); MIC (S. aureus 1870; Staphylococcus aureus, 1870): > 256 µM; MIC (S. aureus 2122; Staphylococcus aureus, 2122): > 256 µM; MIC (S. aureus 5156; Staphylococcus aureus, 5156): > 256 µM; MIC (S. aureus 1635; Staphylococcus aureus, 1635): > 256 µM; MIC (S. aureus 4761; Staphylococcus aureus, 4761): > 256 µM
